The source of these data is article PMC7346113, “Screening of Natural Stilbene Oligomers from Vitis vinifera for Anticancer Activity on Human Hepatocellular Carcinoma Cells” (Antioxidants, 2020).

Molecules are shown by their SMILES.

This assay has as its system intracellular ROS in HepG2. Kind of assay: Intracellular ROS, H2DCF-DA assay, flow cytometry. The format is cell-based, human. As to the method: Intracellular levels of reactive oxygen species (ROS) were measured using the cell-permeant 2’,7’ dichlorodihydrofluorescein diacetate (H2DCF-DA) probe (Molecular Probes, Eugene, OR, USA), which permeates living cells and is deacetylated and oxidized upon ROS exposure inside the cell, forming the fluorescent 2’,7’-dichlorofluorescein (DCF).
HepG2 cells were cultured in a 6-well cell culture plate at a density of 2 × 10^5 cells per well 24 h before starting the treatment with R2-viniferin. The medium was renewed and cells were incubated with R2-viniferin as described above. After treatment, cells were washed and incubated with 20 μM H2DCF-DA or 4 μM MitoSOX™ for 30 min at 37 °C in the dark. The probe solution was then withdrawn and, after washing with PBS, the cells were trypsinized. The fluorescence intensity from living cells was measured by flow cytometry (DCF λex = 485/20 and λem = 528/20, MitoSOX λex = 485/20 and λem = 620/20) in a Beckman Coulter Gallios Flow cytometer in the General Research Services SGIker of the UPV/EHU. At least 10,000 events were detected. Data obtained from flow cytometry were analyzed using Summit 4.3 software (Dako, Hovedstaden, Denmark). Intracellular ROS and mitochondrial O2^− were expressed as the percentage of the fluorescence intensity in control cells at the same time of incubation.

In the case of `Oc1ccc([C@H]2c3c(O)cc(O)cc3[C@H]3c4c(cc(O)cc4[C@@H]2c2cc(/C=C/c4cc(O)cc5c4[C@H](c4cc(O)cc(O)c4)[C@@H](c4ccc(O)cc4)O5)ccc2O)O[C@@H]3c2ccc(O)cc2)cc1` [R2-Viniferin], the “Effect on intracellular ROS concentration” value (HepG2, 5 and 10 µM, from the first time assayed) is on record as “increased the intracellular ROS concentration dose-dependently”. For the same molecule, where the note is “HepG2, highest concentration used (10 µM)”, the “Effect on intracellular ROS” value is listed as “ROS remained significantly elevated up to 72 h”.
